PMC6691401 (Journal of Medicinal Chemistry, 2019)

Target: Mab TrmD (Mycobacteroides abscessus, UniProt B1MDI3)
Test: Isothermal titration calorimetry (ITC)
Assay type: binding
Conditions: for LE: ligand efficiency; for GE (R^1): group efficiency of R^1; for GE: group efficiency of the added group

Chain of Mab TrmD (B1MDI3 entry or part of it): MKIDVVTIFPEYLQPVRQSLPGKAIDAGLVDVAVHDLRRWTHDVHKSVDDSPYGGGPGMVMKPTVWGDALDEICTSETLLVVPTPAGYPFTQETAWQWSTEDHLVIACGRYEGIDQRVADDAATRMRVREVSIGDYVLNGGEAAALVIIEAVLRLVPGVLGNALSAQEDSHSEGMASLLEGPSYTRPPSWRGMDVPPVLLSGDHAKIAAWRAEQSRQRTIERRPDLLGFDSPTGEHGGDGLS

CCOC(=O)c1cn[nH]c1 [Compound 1, ethyl 1H-pyrazole-4-carboxylate]
LE (Table 1): 0.55 kcal mol^–1 per heavy atom
LE: 0.55 kcal mol^–1 per heavy atom

O=C(OCc1ccccc1)c1cn[nH]c1 [Compound 3, Benzyl 1H-Pyrazole-4-carboxylate]
LE (Table 1): 0.41 kcal mol^–1 per heavy atom
LE: 0.41 kcal mol^–1 per heavy atom

N#Cc1cccc(COC(=O)c2cn[nH]c2)c1 [Compound 6, 3-Cyanobenzyl 1H-Pyrazole-4-carboxylate]
LE (Table 1): 0.36 kcal mol^–1 per heavy atom

COc1cccc(COC(=O)c2cn[nH]c2)c1 [Compound 7, 3-Methoxybenzyl 1H-Pyrazole-4-carboxylate]
LE (Table 1): 0.39 kcal mol^–1 per heavy atom
LE: 0.39 kcal mol^–1 per heavy atom

COC(=O)COc1cccc(COC(=O)c2cn[nH]c2)c1 [Compound 8, 3-(2-Methoxy-2-oxoethoxy)benzyl 1H-Pyrazole-4-carboxylate]
LE (Table 2): 0.32 kcal mol^–1 per heavy atom
LE: 0.32 kcal mol^–1 per heavy atom

CCOc1cccc(COC(=O)c2cn[nH]c2)c1 [Compound 10, 3-Ethoxybenzyl 1H-Pyrazole-4-carboxylate]
LE (Table 2): 0.38 kcal mol^–1 per heavy atom
LE: 0.38 kcal mol^–1 per heavy atom

CCOC(=O)c1cnn(CC#Cc2cc(COC(=O)c3cn[nH]c3)cc(OC)c2)c1 [Compound 12, Ethyl 1-(3-(3-(((1H-Pyrazole-4-carbonyl)oxy)methyl)-5-methoxyphenyl)prop-2-yn-1-yl)-1H-pyrazole-4-carboxylate]
LE (Table 2): 0.24 kcal mol^–1 per heavy atom
LE: 0.24 kcal mol^–1 per heavy atom

COc1cc(COC(=O)c2cn[nH]c2)cc(N2CCCC2)c1 [Compound 13, 3-Methoxy-5-(pyrrolidin-1-yl)benzyl 1H-Pyrazole-4-carboxylate]
LE (Table 2): 0.31 kcal mol^–1 per heavy atom
LE: 0.31 kcal mol^–1 per heavy atom

COc1cc(COC(=O)c2cn[nH]c2)cc(-c2cccnc2)c1 [Compound 14, 3-Methoxy-5-(pyridin-3-yl)benzyl 1H-Pyrazole-4-carboxylate]
LE (Table 2): 0.31 kcal mol^–1 per heavy atom
LE: 0.31 kcal mol^–1 per heavy atom

COc1cc(COC(=O)c2cn[nH]c2)cc(Cc2cccnc2)c1 [Compound 15]
LE (Table 2): 0.28 kcal mol^–1 per heavy atom
LE: 0.28 kcal mol^–1 per heavy atom

COc1ccc(Cn2ccc3ccc(-c4cc(N)n[nH]4)cc32)cc1 [Compound 24a, 5-(1-(4-Methoxybenzyl)-1H-indol-6-yl)-1H-pyrazol-3-amine]
GE (R^1) (Table 4): 0.04 kcal mol^–1 per heavy atom
LE (Table 4): 0.24 kcal mol^–1 per heavy atom
LE: 0.24 kcal mol^–1 per heavy atom

COc1cccc(Cn2ccc3ccc(-c4cc(N)n[nH]4)cc32)c1 [Compound 24b, 5-(1-(3-Methoxybenzyl)-1H-indol-6-yl)-1H-pyrazol-3-amine]
GE (R^1) (Table 4): 0.14 kcal mol^–1 per heavy atom
LE (Table 4): 0.28 kcal mol^–1 per heavy atom
GE: 0.14 kcal mol^–1 per heavy atom
LE: 0.28 kcal mol^–1 per heavy atom

N#Cc1ccccc1Cn1ccc2ccc(-c3cc(N)n[nH]3)cc21 [Compound 24d, 2-((6-(3-Amino-1H-pyrazol-5-yl)-1H-indol-1-yl)methyl)benzonitrile]
GE (R^1) (Table 4): 0.15 kcal mol^–1 per heavy atom
LE (Table 4): 0.28 kcal mol^–1 per heavy atom
LE: 0.28 kcal mol^–1 per heavy atom

N#Cc1c(N)n[nH]c1-c1ccc2cc[nH]c2c1 [Compound 25, 3-Amino-5-(1H-indol-6-yl)-1H-pyrazole-4-carbonitrile]
LE (Table 4): 0.43 kcal mol^–1 per heavy atom
GE: 0.91 kcal mol^–1 per heavy atom
LE: 0.43 kcal mol^–1 per heavy atom

N#Cc1c(N)n[nH]c1-c1ccc2ccn(Cc3cccnc3)c2c1 [Compound 26g, 3-Amino-5-(1-(pyridin-3-ylmethyl)-1H-indol-6-yl)-1H-pyrazole-4-carbonitrile]
fold improvement in binding affinity (decrease of Kd) relative to 26f: greater than 2 fold
GE (R^1) (Table 5): 0.28 kcal mol^–1 per heavy atom
LE (Table 5): 0.38 kcal mol^–1 per heavy atom
LE: 0.38 kcal mol^–1 per heavy atom

N#Cc1c(N)n[nH]c1-c1ccc2ccn(Cc3cccnc3O)c2c1 [Compound 26j, 3-Amino-5-(1-((2-hydroxypyridin-3-yl)methyl)-1H-indol-6-yl)-1H-pyrazole-4-carbonitrile]
GE (R^1) (Table 5): 0.03 kcal mol^–1 per heavy atom
LE (Table 5): 0.30 kcal mol^–1 per heavy atom
LE: 0.30 kcal mol^–1 per heavy atom

N#Cc1c(N)n[nH]c1-c1ccc2ccn(Cc3ccc(O)nc3)c2c1 [Compound 26k, 3-Amino-5-(1-((6-hydroxypyridin-3-yl)methyl)-1H-indol-6-yl)-1H-pyrazole-4-carbonitrile]
GE (R^1) (Table 5): 0.10 kcal mol^–1 per heavy atom
LE (Table 5): 0.32 kcal mol^–1 per heavy atom
LE: 0.32 kcal mol^–1 per heavy atom

N#Cc1c(N)n[nH]c1-c1ccc2ccn(Cc3ccncc3)c2c1 [Compound 26l, 3-Amino-5-(1-(pyridin-4-ylmethyl)-1H-indol-6-yl)-1H-pyrazole-4-carbonitrile]
fold improvement in binding affinity (decrease of Kd) relative to 26f: 4 fold
GE (R^1) (Table 5): 0.31 kcal mol^–1 per heavy atom
LE (Table 5): 0.39 kcal mol^–1 per heavy atom
LE: 0.39 kcal mol^–1 per heavy atom

CN1CCCCC1Cn1ccc2ccc(-c3[nH]nc(N)c3C#N)cc21 (centres unmarked) [Compound 26n, 3-Amino-5-(1-((1-methylpiperidin-2-yl)methyl)-1H-indol-6-yl)-1H-pyrazole-4-carbonitrile]
GE (R^1) (Table 5): 0.16 kcal mol^–1 per heavy atom
LE (Table 5): 0.34 kcal mol^–1 per heavy atom
LE: 0.34 kcal mol^–1 per heavy atom

CN1CCCC(Cn2ccc3ccc(-c4[nH]nc(N)c4C#N)cc32)C1 (centres unmarked) [Compound 26o, 3-Amino-5-(1-((1-methylpiperidin-3-yl)methyl)-1H-indol-6-yl)-1H-pyrazole-4-carbonitrile]
GE (R^1) (Table 5): 0.20 kcal mol^–1 per heavy atom
LE (Table 5): 0.35 kcal mol^–1 per heavy atom
LE: 0.35 kcal mol^–1 per heavy atom

N#Cc1c(N)n[nH]c1-c1ccc2c(Cl)cn(Cc3cccnc3)c2c1 [Compound 27g, 3-Amino-5-(3-chloro-1-(pyridin-3-ylmethyl)-1H-indol-6-yl)-1H-pyrazole-4-carbonitrile]
LE (Table 5): 0.28 kcal mol^–1 per heavy atom
LE: 0.28 kcal mol^–1 per heavy atom

N#Cc1c(N)n[nH]c1-c1ccc2ccn(Cc3ccc(CN4CCCCC4)cc3)c2c1 [Compound 29b, 3-Amino-5-(1-(4-(piperidin-1-ylmethyl)benzyl)-1H-indol-6-yl)-1H-pyrazole-4-carbonitrile]
Kd (Table 6): 70 ± 29 nM
LE (Table 6): 0.31 kcal mol^–1 per heavy atom

N#Cc1c(N)n[nH]c1-c1ccc2ccn(Cc3ccc(CN4CCOCC4)cc3)c2c1 [Compound 29c, 3-Amino-5-(1-(4-(morpholinomethyl)benzyl)-1H-indol-6-yl)-1H-pyrazole-4-carbonitrile]
Kd (Table 6): 190 ± 23 nM
LE (Table 6): 0.30 kcal mol^–1 per heavy atom
LE: 0.30 kcal mol^–1 per heavy atom

CC(C)N1CCN(Cc2ccc(Cn3ccc4ccc(-c5[nH]nc(N)c5C#N)cc43)cc2)CC1 [Compound 29e, 3-Amino-5-(1-(4-((4-isopropylpiperazin-1-yl)methyl)benzyl)-1H-indol-6-yl)-1H-pyrazole-4-carbonitrile]
Kd (Table 6): 100 ± 24 nM
LE (Table 6): 0.28 kcal mol^–1 per heavy atom
LE: 0.28 kcal mol^–1 per heavy atom
